Data as given in EP4477653A1 (Perha Pharmaceuticals, priority 2023, dated 2024).
Where two headings read alike, the source gives them in different places.

Assays:
[1] = Reversed-phase HPLC analysis of final compounds (stability under the analytical conditions); type: physicochemical
Protocol: Final compounds: Reversed-phase HPLC/MS analyses were carried out with a HPLC Ultimate 3000 (ThermoScientific) with an UV-DAD detector. Mass detection processing with direct infusion in mass detector (SQD2) from UPLC Acquity (Waters). Compounds (0.2 to 0.6 mg) were solubilized in a mixture of DMSO/H2O (1/1) and filtered on syringe filter 0.2 µm. • Acidic conditions: Thermo Scientific Syncronis C18 column, 150 x 4.6 mm, 5 µm. Flow rate: 1 mL/min. Gradient: (H2O + 0.1% HCOOH v/v)/(ACN + 0.1% HCOOH v/v) from 95/5 to 5/95 in 19.0 min. • Alkaline conditions: Thermo Scientific Syncronis C18 column, 150 × 4.6 mm, 5 µm or XTERRA RP18, 150×4.6mm, 3.5µm. Flow rate: 1 mL/min. Gradient: (HCOONH4 10mM + NH4OH 25% aq. to ajust pH = 10)/ACN from 95/5 to 5/95 in 19.0 min. Table 2: Spectroscopic and analytical characterization of compounds (1) to (220)

[2] = molecular target: T1, human recombinant A3AR (expressed in HEK-293 cells) (Homo sapiens, UniProt P0DMS8); assay: Adenosine receptors antagonism assay (Eurofins), [125I]-AB-MECA radioligand competition; type: binding
T1 construct: host or cells: HEK-293 cells
T1 sequence (P0DMS8 1-318): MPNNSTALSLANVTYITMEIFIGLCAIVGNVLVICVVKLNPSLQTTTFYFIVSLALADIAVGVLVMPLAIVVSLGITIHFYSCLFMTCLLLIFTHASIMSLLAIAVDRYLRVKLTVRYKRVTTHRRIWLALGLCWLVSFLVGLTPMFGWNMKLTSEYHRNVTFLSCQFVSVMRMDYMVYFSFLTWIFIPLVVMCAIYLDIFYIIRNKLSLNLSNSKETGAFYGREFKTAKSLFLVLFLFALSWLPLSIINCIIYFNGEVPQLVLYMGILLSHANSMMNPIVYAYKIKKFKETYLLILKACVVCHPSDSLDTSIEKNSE
Protocol: Assays were carried out at r.t. for 120 min. Compounds were initially tested at three concentrations (0.01, 0.1, 1 µM). […] IC50 values, which is the concentration causing a half-maximal inhibition of control specific binding, and Hill coefficients (nH) were determined by non-linear regression analysis of the competition curves generated with mean replicate values using Hill equation curve fitting. The inhibition constants (Ki) were calculated using the Cheng Prusoff equation.

LogD (HPLC) = type: physicochemical; details: by HPLC; Table 2
[3] = system: hair cells in isolated organs of Corti; assay: Otoprotective effects in ex vivo cultured organs of Corti, hair cells stained for myosine 7a; type: cell-based, mice; details: 24 hrs, compound 0.1-1 µM added 2 hrs before
Protocol: Organs of Corti were obtained from mice at the P0-P3 stage. Organs of Corti were cultured ex vivo for 24 h before addition of cisplatin (20 µM), gentamycin (100 µM) or neomycin (3 mM) with or without compound (175) (1 or 0.1 µM) added 2 hrs before the ototoxins. After 24 hrs incubation, outer and inner ciliated hair cells were stained with an antibody directed against myosine 7a.

[4] = molecular target: T2, Human recombinant A3AR expressed in CHO cells (Homo sapiens, UniProt P0DMS8); assay: A3AR functional assay, cAMP levels measured by HTRF; type: cell-based
T2 construct: expressed in transfected cells; host or cells: CHO cells
T2 sequence (P0DMS8 1-318): T1 sequence (P0DMS8 1-318)
Protocol: Both assays were run for 20 min at 37°C, and cAMP levels measured by HTRF (homogeneous time resolved fluorescence) was used as an endpoint. The EC50 values (concentration producing a half-maximal response) and IC50 values (concentration causing a half-maximal inhibition of the control agonist response) were determined by non-linear regression analysis of the concentration-response curves generated with mean replicate values using Hill equation curve fitting.
An antagonistic activity in a radioligand assay can be due to competition to the same site by either an agonist or an antagonist (inhibitor). […] Assays were run for 20 min at 37°C and cAMP level measured by HTRF was used as an endpoint measure of the A3AR activity.

panel of 168 GPCRs = assay: PathHunter β-arrestin enzyme fragment complementation, agonist and antagonist mode; type: cell-based; details: figure 2
Protocol: […] In brief, when the GPCR is activated and β-Arrestin is recruited to the receptor, the two fragments of β-galactosidase complementation occurs, restoring β- galactosidase activity which is measured using chemiluminescent PathHunter® Detection Reagents. The tested compound can be evaluated as a potential agonist or, in the presnece of a specifi agonits of each GPCR, as a potential antagonist. Results are provided in reference to the assay performed in the absence of tested compound.
The results of an evaluation of the potential agonist or antagonist activity of compound (175) on 168 GPCRs are depicted in figure 2.

[5] = [125I]-AB-MECA 0.15 nM, r.t., 120 min, IC50 from dose-response curves, read-out: Potency Class A3AR

| SMILES | IC50 [2, 5] [nM] | chromatographic logD (LogD (HPLC)) | further results |
| --- | --- | --- | --- |
| CSCCCNc1cc(NCc2ccccc2)c2nnc(C(C)C)n2n1 [compound 17, N8-benzyl-3-isopropyl-N6-(3-methylsulfanylpropyl)-[1,2,4]triazolo[4,3-b]pyridazine-6,8-diamine] | 10 to 100 |  | HPLC ([1]; Acidic conditions (H2O + 0.1% HCOOH / ACN + 0.1% HCOOH gradient)): Unstable ^a |
| CCC(CC)Nc1cc(NC(=O)Oc2ccccc2)c2nnc(C(C)C)n2n1 [compound 100, phenyl N-[6-(1-ethylpropylamino)-3-isopropyl-[1,2,4]triazolo[4,3-b]pyridazin-8-yl]carbamate] |  |  | HPLC ([1]; Alkaline conditions (HCOONH4 10mM + NH4OH, pH = 10 / ACN gradient)): Unstable ^b; IC50 [2]: 1 to 10 nM |
| CC(C)c1nnc2c(NCc3ccccc3)cc(NCCOc3ccccc3)nn12 [compound 128, N8-benzyl-3-isopropyl-N6-(2-phenoxyethyl)-[1,2,4]triazolo[4,3-b]pyridazine-6,8-diamine] | 100 to 1000 | 3.68 |  |
| CC(C)c1nnc2c(NCc3ccccc3)cc(NCc3nccn3C)nn12 [compound 129, N8-benzyl-3-isopropyl-N6-[(1-methylimidazol-2-yl)methyl]-[1,2,4]triazolo[4,3-b]pyridazine-6,8-diamine] | 100 to 1000 | 1.95 |  |
| CC(C)c1nnc2c(NCc3ccccc3)cc(NCc3ccccc3)nn12 [compound 130, N6,N8-dibenzyl-3-isopropyl-[1,2,4]triazolo[4,3-b]pyridazine-6,8-diamine] | 1 to 10 | 3.5 |  |
| CC(C)c1nnc2c(NCc3ccccc3)cc(NCc3ccccn3)nn12 [compound 131, N8-benzyl-3-isopropyl-N6-(2-pyridylmethyl)-[1,2,4]triazolo[4,3-b]pyridazine-6,8-diamine] | 10 to 100 | 2.51 |  |
| CC(C)c1nnc2c(NCc3ccccc3)cc(NCc3cccnc3)nn12 [compound 132, N8-benzyl-3-isopropyl-N6-(3-pyridylmethyl)-[1,2,4]triazolo[4,3-b]pyridazine-6,8-diamine] | 10 to 100 | 2.36 |  |
| CC(C)c1nnc2c(NCc3ccccc3)cc(NCc3ccncc3)nn12 [compound 133, N8-benzyl-3-isopropyl-N6-(4-pyridylmethyl)-[1,2,4]triazolo[4,3-b]pyridazine-6,8-diamine] | 100 to 1000 | 2.36 |  |
| CC(C)c1nnc2c(NCc3ccccc3)cc(NCC3(C)CCCCC3)nn12 [compound 136] |  | 4.88 | IC50 ([2]; read-out: Potency Class A3AR, [125I]-AB-MECA 0.15 nM, r.t., 120 min, IC50 from dose-response curves): 10 to 100 nM |
| CC(C)c1nnc2c(NCc3ccccc3)cc(NC34CC5CC(CC(C5)C3)C4)nn12 [compound 137, N6-(1-adamantyl)-N8-benzyl-3-isopropyl-[1,2,4]triazolo[4,3-b]pyridazine-6,8-diamine] | 100 to 1000 | 5.02 |  |
| CC(C)c1nnc2c(NCc3ccccc3)cc(NC3Cc4ccccc4C3)nn12 [compound 138, N8-benzyl-N6-indan-2-yl-3-isopropyl-[1,2,4]triazolo[4,3-b]pyridazine-6,8-diamine] | 10 to 100 | 4.08 |  |
| Cc1cnc(CNc2cc(NCc3ccccc3)c3nnc(C(C)C)n3n2)cn1 [compound 139, N8-benzyl-3-isopropyl-N6-[(5-methylpyrazin-2-yl)methyl]-[1,2,4]triazolo[4,3-b]pyridazine-6,8-diamine] | 100 to 1000 | 2.3 |  |

Continued, in another order:

| IC50 [2, 5] [nM] | chromatographic logD (LogD (HPLC)) | SMILES | further results |
| --- | --- | --- | --- |
| 10 to 100 | 2.3 | CC(C)c1nnc2c(NCc3ccccc3)cc(NCc3cnn(C)c3)nn12 [compound 140, N8-benzyl-3-isopropyl-N6-[(1-methylpyrazol-4-yl)methyl]-[1,2,4]triazolo[4,3-b]pyridazine-6,8-diamine] |  |
| 100 to 1000 | 4.2 | Cc1cc(C)cc(CNc2cc(NCc3ccccc3)c3nnc(C(C)C)n3n2)c1 [compound 141, N8-benzyl-N6-[(3,5-dimethylphenyl)methyl]-3-isopropyl-[1,2,4]triazolo[4,3-b]pyridazine-6,8-diamine] |  |
| 10 to 100 | 3.07 | CSCCNc1cc(NCc2ccccc2)c2nnc(C(C)C)n2n1 [compound 143, N8-benzyl-3-isopropyl-N6-(2-methylsulfanylethyl)-[1,2,4]triazolo[4,3-b]pyridazine-6,8-diamine] |  |
| 100 to 1000 | 2.27 | CC(C)c1nnc2c(NCc3ccccc3)cc(Nc3nccn3C)nn12 [compound 144, N8-benzyl-3-isopropyl-N6-(1-methylimidazol-2-yl)-[1,2,4]triazolo[4,3-b]pyridazine-6,8-diamine] |  |
| 100 to 1000 | 2.52 | Cc1cc(C)nc(CNc2cc(NCc3ccccc3)c3nnc(C(C)C)n3n2)n1 [compound 145, N8-benzyl-N6-[(4,6-dimethylpyrimidin-2-yl)methyl]-3-isopropyl-[1,2,4]triazolo[4,3-b]pyridazine-6,8-diamine] |  |
| < 1 |  | CCC(CC)Nc1cc(Nc2cccnn2)c2nnc(C3CC3)n2n1 [compound 175, 3-cyclopropyl-N6-(pentan-3-yl)-N8-(pyridazin-3-yl)-[1,2,4]triazolo[4,3-b]pyridazine-6,8-diamine] | hair cell death induced by cisplatin ([3]; cisplatin 20 µM, figure 5A): prevented cell death; hair cell death induced by gentamycin ([3]; gentamycin 100 µM, figure 5B): prevented cell death; hair cell death induced by neomycin ([3]; neomycin 3 mM, figure 5C): prevented cell death; agonist effect ([4]; absence of ligand, concentrations tested 1 nM to 3.3 µM, data not shown): no agonist effect was detected; inhibition of A3AR ([4]; antagonist mode, stimulation 10 nM IB-MECA, 20 min at 37°C, figure 4): ≥ 65%; mode of action on A3AR ([4]; figure 4): partial antagonist inhibitor; selectivity towards ARs ([2]; A3AR compared to A1AR, A2AAR and A2BAR, figure 3): selective of A3AR; effect on all other GPCRs (panel of 168 GPCRs; agonist and antagonist mode, 0.1 µM compound): not or marginally impacted; inhibition of A3AR among 168 GPCRs (panel of 168 GPCRs; antagonist mode, GPCR exposed to its specific ligand and 0.1 µM compound): fully inhibited |
